Experimental data: the NIST ThermoML archive (doi:10.1016/j.jct.2009.08.002)
Numbers after ± are expanded uncertainties.

What was measured:
[1] = molar heat capacity at constant pressure; conditions: 298.15 K; 101.33 kPa; Liquid; Large sample (1 g) DSC
[2] = molar heat capacity at constant pressure; xn = mol fraction of the nth substance listed; conditions: Liquid, Large sample (1 g) DSC, x2 = 0

Structure (SMILES) | molar heat capacity at constant pressure [1] [J/K/mol] | molar heat capacity at constant pressure ([2]; 283.15 K) [J/K/mol] | molar heat capacity at constant pressure ([2]; 288.15 K) [J/K/mol] | molar heat capacity at constant pressure ([2]; 293.15 K) [J/K/mol] | molar heat capacity at constant pressure ([2]; 298.15 K) [J/K/mol] | molar heat capacity at constant pressure ([2]; 303.15 K) [J/K/mol] | molar heat capacity at constant pressure ([2]; 308.15 K) [J/K/mol] | molar heat capacity at constant pressure ([2]; 313.15 K) [J/K/mol] | molar heat capacity at constant pressure ([2]; 318.15 K) [J/K/mol] | molar heat capacity at constant pressure ([2]; 323.15 K) [J/K/mol]
CCCCCCn1cc[n+](C)c1.F[B-](F)(F)F [1-hexyl-3-methylimidazolium tetrafluoroborate] | 432 ± 8 | – | – | – | – | – | – | – | – | –
CCCCCCCC[n+]1ccn(C)c1.F[B-](F)(F)F [1-methyl-3-octylimidazolium tetrafluoroborate] | 498.3 ± 11 | – | – | – | – | – | – | – | – | –
CC#N [acetonitrile] | 90.93 ± 1.4 | – | – | – | – | – | – | – | – | –
CC#N [acetonitrile] + CCCCCCCC[n+]1ccn(C)c1.F[B-](F)(F)F | – | 90.03 ± 1.4 | 90.3 ± 1.4 | 90.6 ± 1.4 | 90.93 ± 1.4 | 91.28 ± 1.4 | 91.66 ± 1.4 | 92.07 ± 1.4 | 92.5 ± 1.4 | 92.96 ± 1.4
CC#N [acetonitrile] + CCCCCCn1cc[n+](C)c1.F[B-](F)(F)F | – | 90.03 ± 1.4 | 90.3 ± 1.4 | 90.6 ± 1.4 | 90.93 ± 1.4 | 91.28 ± 1.4 | 91.66 ± 1.4 | 92.07 ± 1.4 | 92.5 ± 1.4 | 92.96 ± 1.4
